# Values joined by “and” are separate entries in the source; they are usually repeats but may differ in a detail not shown here. Equal values may be shown once. Where a name gives a salt, the structure may show the parent alone.
# Experiments:
# [1] = Body weight in the orthotopic pancreatic tumour model in nude mice; format: in vivo; conditions: 25 days after tumour cell injection; gemcitabine 100 mg/kg i.p. twice weekly, ZD6126 75 mg/kg i.p. daily 5 days per week
# Protocol: (§1) Nude mice (n=8 to 10 per group) were treated 9 days after injection of 1×10^6 L3.6pl cells into the pancreas, with gemcitabine alone (100 mg/kg by intraperitoneal injection (i.p.) twice weekly on treatment days 2, 5, 9, 12), ZD6126 alone (75 mg/kg i.p. daily for 5 days per week on treatment days 1-5 and 8-12), or a combination of both agents ie gemcitabine (100 mg/kg i.p. twice weekly) and ZD6126 (75 mg/kg i.p. daily for 5 days per week). Thus the combination group received ZD6126 on treatment days 1-5 and 8-12 and gemcitabine on treatment days 2 and 5 and 9 and 12. On the days where both agents were given, gemcitabine was dosed at least 1 hour before ZD6126. A control group of 10 mice received intraperitoneal injections of an equivalent volume of saline according to the same treatment schedule as the combination group. The animals were sacrificed 25 days after tumour cell injection.
# L3.6pl cells = assay: Primary pancreatic tumour growth and metastases growing orthotopically in nude mice; format: in vivo; conditions: gemcitabine 100 mg/kg i.p. twice weekly, ZD6126 75 mg/kg i.p. daily 5 days per week; for Liver Met: animals with liver metastases / animals in group; for Liver Met / LN Met / Peritoneal Carcinosis / Tumour Weight Average ± std dev: 25 days after tumour cell injection; for LN Met: animals with lymph node metastases / animals in group; for Incidence Pancreas: animals with pancreatic tumours / animals in group, sacrificed 25 days after tumour cell injection; for Peritoneal Carcinosis: animals with peritoneal carcinosis / animals in group; for Tumour Weight Average ± std dev: primary pancreatic tumour weight
# Protocol: as §1, with “Model to Investigate Effects of ZD6126 and Gemcitabine Therapy on Primary Pancreatic Tumour Growth and Metastases Growing Orthotopically in Nude Mice Nude” for “Nude”, “injection. The incidence of pancreatic tumours, liver metastases, lymph node metastases and peritoneal carcinosis was evaluated. The primary pancreatic tumour weight was measured. All macroscopically enlarged lymph nodes and liver nodules were confirmed by histopathology (H&E staining).” for “injection.”
Compound,Body Weight Average ± std dev [1],Liver Met (L3.6pl cells),LN Met (L3.6pl cells),Incidence Pancreas (L3.6pl cells),Peritoneal Carcinosis (L3.6pl cells),Tumour Weight Average ± std dev (L3.6pl cells),Tumour Weight Average ± std dev (L3.6pl cells; listed as gemcitabine)
"Nc1ccn([C@@H]2O[C@H](CO)[C@@H](O)C2(F)F)c(=O)n1 [Gemcitabine, 2′-deoxy-2′,2′-difluorocytidine monohydrochloride (β-isomer)]",19.1 ± 2.2 g,2/10,10/10,10/10,1/10,687 ± 157 mg,687 mg
"COc1cc2c(c(OC)c1OC)-c1ccc(OP(=O)(O)O)cc1[C@@H](NC(C)=O)CC2 [ZD6126, N-acetylcolchinol-O-phosphate]",18.5 ± 1.9 g,1/8,2/8,8/8,0/8,541 mg and 541 ± 201 mg,–
